Measured values taken from US20190119282A1, “IMIDAZOPYRIDAZINES USEFUL AS INHIBITORS OF THE PAR-2 SIGNALING PATHWAY” (Vertex Pharmaceuticals Incorporated, priority 2013, published 2019).
pIC50: −log10 of the molar value.

Columns and labels:
[1] = biological target: T1, PAR2 (HT-29 cells, SLIGKV activation) (Homo sapiens, UniProt P55085); assay: Ca FLIPR TETRA assay, ANTAGONIST mode, stimulation with 8 μM SLIGKV; format: cell-based; settings: HT-29 cells
T1 construct: host or cells: HT-29 cells
T1 sequence (P55085 26-397): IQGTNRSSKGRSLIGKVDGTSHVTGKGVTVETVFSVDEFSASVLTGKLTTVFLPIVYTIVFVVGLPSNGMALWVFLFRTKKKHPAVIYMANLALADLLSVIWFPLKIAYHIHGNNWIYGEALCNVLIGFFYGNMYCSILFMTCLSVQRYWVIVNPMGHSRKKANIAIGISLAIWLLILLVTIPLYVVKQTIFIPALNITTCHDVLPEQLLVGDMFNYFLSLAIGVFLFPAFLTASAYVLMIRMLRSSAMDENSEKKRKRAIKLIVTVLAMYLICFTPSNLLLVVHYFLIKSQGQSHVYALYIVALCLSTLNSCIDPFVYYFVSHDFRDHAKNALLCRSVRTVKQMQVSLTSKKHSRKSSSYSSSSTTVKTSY
Procedure: (§1) Example 60: Protocol for Testing PAR2 Compounds in ANTAGONIST Mode Using the Ca FLIPR^TETRA Assay (384 Well)
(§2) 23000 HT-29 cells (ATCC# HTB-38) were plated in 384-well black, transparent-flat bottom plates and incubated in 25 uL of 1% FBS/McCoy's media ON at 37° C. under an atmosphere of 5% CO2. The following day, 25 uL FLIPR calcium 5 Molecular Devices assay reagent (Cat: R-8186) was added. Plates were incubated at 37° C. and r. t. for 45 min and 15 min, respectively. Compounds dilutions were prepared in 100% DMSO using a Biomek FX and diluted 20-fold in HBSS and then 5.5 uL was added directly to the cells by the FLIPR^TETRA (10× dilution) using FLIPR Tetra Pipette tips, black, non-sterile, 384 Molecular Devices (Cat: 9000-0764).
(§3) A first read was performed to determine whether the test compounds on their own can activate Ca2+ responses.
(§4) The cells were incubated with the compounds for 30 min at r. t. and then read in ANTAGONIST mode in the same plate by stimulating with 6.2 uL of a fixed concentration of the activator: final concentrations: 8 μM SLIGKV, 1 U/mL Thrombin, 3.1 U/mL trypsin, or 0.6 μM UTP.

[2] = biological target: T2, PAR2 (HT-29 cells, trypsin activation) (Homo sapiens, UniProt P55085); assay: Ca FLIPR TETRA assay, ANTAGONIST mode, stimulation with 3.1 U/mL trypsin; format: cell-based; settings: HT-29 cells
T2 construct: host or cells: HT-29 cells
T2 sequence (P55085 26-397): T1 sequence (P55085 26-397)
Procedure: as §1, §2, §3, §4

[3] = tested on: Thrombin-stimulated Ca2+ response in HT-29 cells; assay: Ca FLIPR TETRA assay, ANTAGONIST mode, stimulation with 1 U/mL Thrombin; format: cell-based, human; settings: Homo sapiens, HT-29 cells
Procedure: as §1, §2, §3, §4

[4] = tested on: UTP-stimulated Ca2+ response in HT-29 cells; assay: Ca FLIPR TETRA assay, ANTAGONIST mode, stimulation with 0.6 μM UTP; format: cell-based, human; settings: Homo sapiens, HT-29 cells
Procedure: as §1, §2, §3, §4

[5] = antagonist mode, stimulation with 8 μM SLIGKV
[6] = antagonist mode, stimulation with 3.1 U/mL trypsin
[7] = antagonist mode, stimulation with 1 U/mL Thrombin
[8] = antagonist mode, stimulation with 0.6 μM UTP
[9] = stimulation with 3.1 U/mL trypsin
[10] = stimulation with 1 U/mL Thrombin

Structure (SMILES)	pIC50 [1, 5]	pIC50 [2, 6]	pIC50 [3, 7]	pIC50 [4, 8]	pIC50 ([1]; stimulation with 8 μM SLIGKV)	pIC50 [2, 9]	pIC50 [3, 10]	pIC50 ([4]; stimulation with 0.6 μM UTP)	further results
CC(C)(C)c1cc(-c2ccc(F)cc2)nn2cc(C(=O)N3CCNC(=O)C34CCCC4)nc12 [Compound I-462, 6-(8-(tert-butyl)-6-(4-fluorophenyl)imidazo[1,2-b]pyridazine-2-carbonyl)-6,9-diazaspiro[4.5]decan-10-one]	8.66	8.43	< 6.00	< 6.00					
CC(C)(C)c1cc(C2CCC(F)(F)CC2)nn2cc(C(=O)N3CCN(C(=O)[C@H]4CC[C@H](C(=O)O)CC4)CC3(C)C)nc12 [Compound I-506]	6.97	6.79	< 6.00	< 6.00					
CC(C)c1cc(-c2ccc(F)cc2)nn2cc(C(=O)N3CCN(C(=O)CCC(F)(F)F)[C@@H](C)C3)nc12 [Compound I-138]					7.96	7.28	< 5.30	< 5.30	
CC(C)c1cc(-c2ccc(C(F)(F)F)cc2)nn2cc(C(=O)N3CCN(C(=O)c4cccnn4)CC3(C)C)nc12 [Compound I-282]	7.80	7.85	< 6.00	< 6.00					
Cc1cc(C(=O)N2CCN(C(=O)c3cn4nc(-c5ccc(F)cc5)cc(C(C)(C)F)c4n3)C(C)(C)C2)[nH]n1 [Compound I-420]	8.77	8.62	< 6.00	< 6.00					
CCc1cc(-c2ccc(F)cc2)nn2cc(C(=O)N3CCN(C(=O)CC4CCOCC4)[C@@H](C)C3)nc12 [Compound I-164]					6.70	5.70	4.27	4.27	
CC(C)c1cc(-c2ccc(F)cc2)nn2cc(C(=O)N3CCN(C(=O)C4(O)CC4)[C@@H](C)C3)nc12 [Compound I-115]					7.00	6.80	< 4.30	< 4.30	
CC(C)(C)c1cc(-c2ccc(F)cc2)nn2cc(C(=O)N3CCN(C(=O)CCC#N)CC3(C)C)nc12 [Compound I-566]									pIC50 ([1]; antagonist mode, 8 μM SLIGKV): 8.52; pIC50 ([2]; antagonist mode, 3.1 U/mL trypsin): 8.29; pIC50 ([3]; antagonist mode, 1 U/mL Thrombin): < 6.00; pIC50 ([4]; antagonist mode, 0.6 μM UTP): < 6.00
CCC(=O)N1CCN(C(=O)c2cn3nc(-c4ccc(F)cc4)cc(C(F)(F)F)c3n2)CC1 [Compound I-59]					4.66	5.70	< 4.30	< 4.30	
CC1(c2cc(-c3ccc(F)cc3)nn3cc(C(=O)N4CCN(C(=O)C5(O)CCC5)CC4(C)C)nc23)CC1 [Compound I-33, [6-(4-fluorophenyl)-8-(1-methylcyclopropyl)imidazo[1,2-b]pyridazin-2-yl]-[4-(1-hydroxycyclobutanecarbonyl)-2,2-dimethyl-piperazin-1-yl]methanone]					7.35	7.85	< 4.30	< 4.30	
CCc1cc(-c2ccc(F)cc2)nn2cc(C(=O)N3CCN(C(=O)C4(O)CCC4)CC3(C)C)nc12 [Compound I-162]					6.96	6.80	4.46	4.46	
CC(C)[C@@H](O)C(=O)N1CCN(C(=O)c2cn3nc(-c4ccc(F)cc4)cc(N4C[C@@H](C)O[C@@H](C)C4)c3n2)C(C)(C)C1 [Compound I-186]	7.56	7.41	5.82	5.74					
CC(C)c1cc(-c2ccc(F)cc2)nn2cc(C(=O)N3CCN(C(=O)[C@H](O)C(C)(C)C)[C@@H](C)C3)nc12 [Compound I-152]					8.40	7.27	4.89	5.00	
CC1(C)CN(C(=O)[C@H]2CC[C@@H](C(=O)O)CC2)CCN1C(=O)c1cn2nc(-c3ccc(F)cc3)cc(-c3ccc(F)cc3)c2n1 [Compound I-524]	8.85	8.77	< 6.00	< 6.00					
C[C@H]1CN(C(=O)c2cn3nc(-c4ccc(F)cc4)cc(C(F)(F)F)c3n2)CCN1C(=O)OCc1ccccc1 [Compound I-46]					7.40	7.02	< 5.30	< 5.30	
CC(C)c1cc(-c2ccc(Cl)cc2)nn2cc(C(=O)N3CCN(C(=O)[C@H]4C[C@@H](O)C4)CC3(C)C)nc12 [Compound I-543]	8.49	8.32	< 6.00	< 6.00					
